# Laboratory results published in patent publication US20250302846A1, “ANTIBIOTIC COMPOSITION AND METHODS OF USE THEREOF” (THE REGENTS OF THE UNIVERSITY OF COLORADO A BODY CORPORATE, priority 2022, published 2025).
# How the values were obtained:
# Format in all cases: cell-based
# [1] = system: one-day-old staphylococcal biofilms; experiment: One-day-old staphylococcal biofilms; details: biofilms established 24 hours in TSB, treated 18 hours
# Protocol: For the indicated strain, biofilms established in TSB for 24 hours were treated for 18 hours with DMSO, rifampin (1x MIC95=0.05 μg/mL), vancomycin (1x MIC95=1 μg/mL), or D66. The remaining biofilm (A-D) matrix was quantified with crystal violet or E-F) volume was quantified after Syto9 and PI staining as in FIG. 5. G, H) Syto9 and PI-stained Z-stacked images were converted to volumes. Volume data were compiled and reconstructed in Nikon Elements Advanced Research software using a color-coded volume display where blue is the bottom, lowest Z-stack and magenta is the highest point for each sample. Scale bar is in um.
# Asterisks indicate P≤0.05 as determined by one-way ANOVA compared to DMSO. A-D are means and SEMs from three biological replicates performed in triplicate. E-F are means and SDs of one of two replicates derived from a minimum of four fields of view. G-H are representative images from this same replicate as in E-F.
# [2] = system: S. aureus (FDA209); experiment: Membrane voltage with DiSC3(5) in Gram-positive bacteria; details: mid-log S. aureus FDA209 in LB
# Protocol: A) D66 quenches the fluorescent dye DiSC3 (5) in a dose-dependent manner. Data were normalized to DMSO at time 0. Relative fluorescent units (RFU). Mean and SEM of three biological replicates performed with technical triplicates. B, C) Mid-log phase S. aureus (FDA209) in LB were treated at time 0 with DMSO, gramicidin [2 μg/mL], or D66 (1x MIC95=130 μM). B) Fold change in RFU. Data are normalized to DMSO at time 0. C) Data normalized to account for the quenching effect of D66 on DiSC3 (5) observed in A. Mean and SEM of three biological replicates performed with technical triplicates. D) Bacillus subtilis expressing mNeonGreen-FtsZ at stationary phase in LB were placed on agar pads containing D66 at the indicated concentration (1x MIC95=89 μM). Confocal microscope images were taken after 15 minutes to ascertain whether D66 disrupted the septal localization of FtsZ.
# [3] = system: S. Typhimurium SL1344; experiment: Novobiocin potentiation (checkerboard) assay; details: LB, 18 hours, D66 up to 150 μM, novobiocin up to 100 μg/mL
# Protocol: A, B) Dose response curves monitoring S. Typhimurium (SL1344) or E. coli (K12) growth from an OD600 of 0.01, normalized to growth in 2% DMSO under the indicated condition. Mean and SEM of at least three biological replicates performed with technical triplicates; curve fit: sigmoidal, 4P L. C-E) Checkerboard assays of S. Typhimurium SL1344 growth from an OD600 of 0.01 in LB for 18 hours with novobiocin (up to 100 μg/mL) and (C) PMB (up to 48 μM), (D) JDI (up to 150 μM), or (E) D66 (up to 150 μM). Growth was normalized to growth in 2% DMSO, with the darkest blue representing 100% growth and white representing 0%.
# Novobiocin potentiation assays: Overnight LB-grown cultures were diluted in LB to an optical density at 600 nm (OD600) of 0.01 and distributed into polystyrene 96-well flat-bottom plates (Greiner, 655185). […] The final DMSO concentration was at or below 2%. Plates were grown at 37° C. with shaking for 18 hours and OD600 was monitored (BioTek Synergy H1).
# [4] = system: S. Typhimurium SL1344 or 14028 in HeLa cells; experiment: CFU assay in infected HeLa cells
# Protocol: FIG. 1A-D. D66 is a small molecule that prevents S. Typhimurium replication and/or survival in macrophages. A). Structure of D66. B) RAW264.7 macrophage-like cells were infected with S. Typhimurium harboring a chromosomal sifB: : gfp reporter, treated with DMSO or D66 at two hours after infection, and monitored for bacterial accumulation (GFP+Macrophage Area) over 16 hours using the SAFIRE (Screen for Anti-infectives using Fluorescence microscopy of Intracellular Enterobacteriaceae) assay. The IC50 value is indicated. Mean and SD of biological duplicates with technical duplicates across 9 dilutions of D66. C, D) CFU assays were performed with RAW264.7 or HeLa cells infected with S. Typhimurium SL1344 or 14028 for two hours and treated for 16 hours with DMSO or 1.5-fold dilutions of D66, prior to lysis and plating for CFU. Symbols on the Y-axes are the CFU value from DMSO-treated samples. The IC50 values are indicated. Mean and SEMs of biological triplicates with technical duplicates across 8 dilutions of D66.
# CFU assays were performed with RAW 264.7 cells seeded as above or with Hela cells (ATCC CCL-2) seeded at 1x10^4 cells per 96-well. Cells were infected as described above with either S. Typhimurium SL1344 or 14028, as indicated at an approximate MOI of 30 bacteria per RAW 264.7 cell and 150 bacteria per HeLa cell. Plates were centrifuged and gentamicin treated as above. […]
# [5] = system: S. aureus FDA209; experiment: Membrane permeability by PI fluorescence; details: mid-log S. aureus FDA209
# Protocol: Mid-log phase S. aureus FDA209 cells were used for all experiments. A) Membrane fluidity was evaluated with a Laurdan generalized polarization (GP) assay. Cells were exposed at time 0 to DMSO, benzyl alcohol (BnOH, a membrane fluidizer [50 mM]), or D66 (1x MIC95=130 μM). Mean and SEM of three biological replicates performed with technical triplicates. B) Membrane permeability was monitored by PI fluorescence. Cells were exposed at time 0 to DMSO, SDS [0.3%], or D66. Samples were processed at the timepoints shown. Mean and SEM of three biological replicates performed with technical triplicates. C) Intracellular pH was monitored with the fluorescent probe BCECF-AM. Cells were exposed at time 0 to DMSO, the protonophore CCCP [100 μM], or D66. Mean and SEM of three biological replicates performed with technical triplicates. D) Intracellular ATP levels measured using the Promega BacTiter-Glo kit after 30 minutes of treatment with DMSO, chloramphenicol (Chlor), or D66. Mean and SEM of three biological replicates performed with technical triplicates. E) Respiration rates of cells incubated with resazurin and treated at time 0 as indicated. Mean and […]
smiles,measurement,setting,value
O=C(Nc1cc(Cl)cc(Cl)c1)N1CCCN(Cc2ccccc2)CC1 [D66],number of live cells in one-day-old biofilms,[1],decreases the number of live cells
same,voltage across the bacterial cytoplasmic membrane,[2],rapidly disrupts voltage across the bacterial cytoplasmic membrane
same,potentiation of growth inhibition with novobiocin,[3],did not potentiate novobiocin
same,ability to reduce bacterial load in Hela cells,[4],little effect
same,reduction in CFU,[4],5-10 fold
same,cell membrane rupture (PI permeability),[5],does not rupture the cell membrane
